From paper PMC9545763, “Therapeutic potential of deuterium‐stabilized (R)‐pioglitazone—PXL065—for X‐linked adrenoleukodystrophy” (Journal of Inherited Metabolic Disease, 2022)
pIC50: −log10 of the molar value.

Molecular target: T1, ACSL4 (long-chain acyl-CoA synthetase 4) (Rattus norvegicus, UniProt O35547)
T1 construct: purified recombinant rat FLAG-ACSL4
Test: ACSL enzyme activity assay with […] palmitate, scintillation counting
Type: biochemical

T1 sequence (O35547 whole entry): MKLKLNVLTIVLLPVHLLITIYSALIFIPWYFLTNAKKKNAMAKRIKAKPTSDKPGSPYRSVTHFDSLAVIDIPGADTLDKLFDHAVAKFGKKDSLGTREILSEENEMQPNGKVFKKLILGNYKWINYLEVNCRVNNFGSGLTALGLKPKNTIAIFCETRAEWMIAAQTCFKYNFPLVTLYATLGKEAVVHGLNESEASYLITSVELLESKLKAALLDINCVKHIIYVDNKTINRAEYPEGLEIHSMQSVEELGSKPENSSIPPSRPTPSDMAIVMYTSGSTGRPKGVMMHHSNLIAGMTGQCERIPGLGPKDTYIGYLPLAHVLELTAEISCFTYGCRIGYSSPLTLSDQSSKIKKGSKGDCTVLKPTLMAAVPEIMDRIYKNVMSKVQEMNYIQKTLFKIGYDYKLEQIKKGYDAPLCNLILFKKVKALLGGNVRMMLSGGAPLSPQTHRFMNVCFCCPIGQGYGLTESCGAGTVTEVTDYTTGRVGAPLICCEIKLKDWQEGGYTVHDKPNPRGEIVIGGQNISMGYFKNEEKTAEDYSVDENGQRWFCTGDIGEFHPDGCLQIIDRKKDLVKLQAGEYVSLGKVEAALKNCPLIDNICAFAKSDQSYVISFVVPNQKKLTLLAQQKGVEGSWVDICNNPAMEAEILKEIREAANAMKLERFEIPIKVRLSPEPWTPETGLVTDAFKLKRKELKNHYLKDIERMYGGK

CCc1ccc(CCOc2ccc(C[C@H]3SC(=O)NC3=O)cc2)nc1 [PXL065]
pIC50: 5.67

CCc1ccc(CCOc2ccc(CC3SC(=O)NC3=O)cc2)nc1 (racemic) [pioglitazone]
pIC50: 5.68
